Reference: ChEMBL document CHEMBL2062379, “Cleavage mechanism and anti-tumor activity of 3,6-epidioxy-1,10-bisaboladiene isolated from edible wild plants” (Bioorg Med Chem, 2012)
Calls of active or inactive are those of the source. No cut-off for these calls is given here.

Tests used:
Saccharomyces cerevisiae [1] = assay: Growth restoration activity in cdc2-1 rad9-deficient Saccharomyces cerevisiae assessed as growth zone at 400 ug/disc; type: functional, organism-based
HL-60 [2] = assay: Cytotoxicity against human HL60 cells after 48 hrs by MTT assay; type: functional, cell-based; conditions: HL-60, 48 h
HL-60 [3] = assay: Induction of apoptosis in human HL60 cells assessed as caspase 3/7 activation at 200 uM after 1 hrs by spectrophotometric analysis; type: functional, cell-based
HL-60 [4] = assay: Induction of apoptosis in human HL60 cells assessed as caspase 8 activation at 200 uM after 1 hrs by spectrophotometric analysis; type: functional, cell-based
HL-60 [5] = assay: Induction of apoptosis in human HL60 cells assessed as caspase 9 activation at 200 uM after 1 hrs by spectrophotometric analysis; type: functional, cell-based
[6] = Drug metabolism in buffer at pH 8 after 24 hrs by HPLC analysis in presence of […]; type: physicochemical; conditions: pH 8, 24 h
HL-60 [7] = assay: Cytotoxicity against human HL60 cells after 48 hrs by MTT assay in absence of DFOM; type: functional, cell-based; conditions: HL-60, 48 h
HL-60 [8] = assay: Cytotoxicity against human HL60 cells after 48 hrs by MTT assay in presence of DFOM; type: functional, cell-based; conditions: HL-60, 48 h
Saccharomyces cerevisiae [9] = assay: Growth restoration activity in cdc2-1 rad9-deficient Saccharomyces cerevisiae assessed as growth zone at 0.05 ug/disc incubated at 37 degC for 6 hrs and 28 degC for 2 days; type: functional
Saccharomyces cerevisiae [10] = assay: Growth restoration activity in cdc2-1 rad9-deficient Saccharomyces cerevisiae assessed as growth zone at 10 ug/disc incubated at 37 degC for 6 hrs and 28 degC for 2 days; type: functional
MCF7 = assay: Growth inhibition of human MCF7 cells; type: functional
MDA-MB-231 = assay: Growth inhibition of human MDA-MB-231 cells; type: functional
U-251 = assay: Growth inhibition of human U251 cells; type: functional
SF-268 = assay: Growth inhibition of human SF268 cells; type: functional
SF-295 = assay: Growth inhibition of human SF295 cells; type: functional
SF-539 = assay: Growth inhibition of human SF539 cells; type: functional
SNB-75 = assay: Growth inhibition of human SNB75 cells; type: functional
SNB-78 = assay: Growth inhibition of human SNB78 cells; type: functional
HCC 2998 = assay: Growth inhibition of human HCC2998 cells; type: functional
KM12 = assay: Growth inhibition of human KM12 cells; type: functional
HT-29 = assay: Growth inhibition of human HT-29 cells; type: functional
HCT-15 = assay: Growth inhibition of human HCT15 cells; type: functional
HCT-116 = assay: Growth inhibition of human HCT116 cells; type: functional
NCI-H23 = assay: Growth inhibition of human NCI-H23 cells; type: functional
NCI-H226 = assay: Growth inhibition of human NCI-H226 cells; type: functional
NCI-H522 = assay: Growth inhibition of human NCI-H522 cells; type: functional
NCI-H460 = assay: Growth inhibition of human NCI-H460 cells; type: functional
A549 = assay: Growth inhibition of human A549 cells; type: functional
DMS-273 = assay: Growth inhibition of human DMS273 cells; type: functional
DMS-114 = assay: Growth inhibition of human DMS114 cells; type: functional
LOX IMVI = assay: Growth inhibition of human LOXIMVI cells; type: functional
OVCAR-3 = assay: Growth inhibition of human OVCAR3 cells; type: functional
OVCAR-4 = assay: Growth inhibition of human OVCAR4 cells; type: functional
OVCAR-5 = assay: Growth inhibition of human OVCAR5 cells; type: functional
OVCAR-8 = assay: Growth inhibition of human OVCAR8 cells; type: functional
SK-OV-3 = assay: Growth inhibition of human SKOV3 cells; type: functional
[11] = Growth inhibition of human RXF631L cells; type: functional; conditions: RXF 631
ACHN = assay: Growth inhibition of human ACHN cells; type: functional
St-4 = assay: Growth inhibition of human St-4 cells; type: functional
[12] = Growth inhibition of human MKN1 cells; type: functional; conditions: MKN-1
MKN-7 = assay: Growth inhibition of human MKN7 cells; type: functional
MKN-28 = assay: Growth inhibition of human MKN28 cells; type: functional
MKN-45 = assay: Growth inhibition of human MKN45 cells; type: functional
MKN-74 = assay: Growth inhibition of human MKN74 cells; type: functional
DU-145 = assay: Growth inhibition of human DU145 cells; type: functional
PC-3 = assay: Growth inhibition of human PC3 cells; type: functional
Saccharomyces cerevisiae [13] = assay: Growth restoration activity in cdc2-1 rad9-deficient Saccharomyces cerevisiae assessed as growth zone at 12.5 to 400 ug/disc incubated at 37 degC for 6 hrs and 28 degC for 2 days; type: functional, organism-based
HL-60 [14] = assay: Induction of apoptosis in human HL60 cells assessed as caspase 3/7 activation at 1 uM after 12 hrs by spectrophotometric analysis; type: functional, cell-based
HL-60 [15] = assay: Induction of apoptosis in human HL60 cells assessed as caspase 8 activation at 1 uM after 12 hrs by spectrophotometric analysis; type: functional, cell-based
HL-60 [16] = assay: Induction of apoptosis in human HL60 cells assessed as caspase 9 activation at 1 uM after 12 hrs by spectrophotometric analysis; type: functional, cell-based
HL-60 [17] = assay: Induction of apoptosis in human HL60 cells assessed as caspase 3/7 activation after 1 to 3 hrs by spectrophotometric analysis; type: functional, cell-based
HL-60 [18] = assay: Induction of apoptosis in human HL60 cells assessed as caspase 8 activation after 1 to 3 hrs by spectrophotometric analysis; type: functional, cell-based
HL-60 [19] = assay: Induction of apoptosis in human HL60 cells assessed as caspase 9 activation after 1 to 3 hrs by spectrophotometric analysis; type: functional, cell-based
HL-60 [20] = assay: Ratio of IC50 for human HL60 cells in presence of DFOM to IC50 for human HL60 cells in absence of DFOM; type: functional
[21] = Growth inhibition of human HBC4 cells; type: functional
[22] = Growth inhibition of human BSY1 cells; type: functional; conditions: BSY-1
[23] = Growth inhibition of human HBC5 cells; type: functional
Saccharomyces cerevisiae [24] = assay: Growth restoration activity in cdc2-1 rad9-deficient Saccharomyces cerevisiae assessed as growth zone at 5 ug/disc incubated at 37 degC for 6 hrs and 28 degC for 2 days; type: functional, organism-based
HL-60 [25] = assay: Cytotoxicity against human HL60 cells at 80 uM after 48 hrs by MTT assay; type: functional, cell-based

CC(C)=CCC[C@@H](C)c1ccc(C)cc1
Activity (Saccharomyces cerevisiae [1]): inactive
IC50 (HL-60 [2]): 109 µM
Activity (HL-60 [3]): Active
Activity (HL-60 [4]): Active
Activity (HL-60 [5]): Active
Drug metabolism [6]: Not Active
IC50 (HL-60 [7]): 107 µM
IC50 (HL-60 [8]): 147 µM

COc1c(C)c2c(c(O)c1C/C=C(\C)CCC(=O)O)C(=O)OC2 [MYCOPHENOLIC ACID]
Activity (Saccharomyces cerevisiae [9]): 18.5 mm

NC(=O)NO [HYDROXYUREA]
Activity (Saccharomyces cerevisiae [10]): 14.3 mm

C[C@H]1[C@@H](O)O[C@@H]2O[C@@]3(C)CC[C@H]4[C@H](C)CC[C@@H]1[C@@]24OO3 [ARTENIMOL]
GI50 (MCF7): 6.17 µM
GI50 (MDA-MB-231): 19.1 µM
GI50 (U-251): 3.31 µM
GI50 (SF-268): 20.9 µM
GI50 (SF-295): 15.5 µM
GI50 (SF-539): 9.77 µM
GI50 (SNB-75): 11.7 µM
GI50 (SNB-78): 8.32 µM
GI50 (HCC 2998): 14.8 µM
GI50 (KM12): 6.03 µM
GI50 (HT-29): 4.37 µM
GI50 (HCT-15): 0.912 µM
GI50 (HCT-116): 1.35 µM
GI50 (NCI-H23): 6.17 µM
GI50 (NCI-H226): 15.8 µM
GI50 (NCI-H522): 2.29 µM
GI50 (NCI-H460): 7.41 µM
GI50 (A549): 15.5 µM
GI50 (DMS-273): 4.47 µM
GI50 (DMS-114): 1.58 µM
GI50 (LOX IMVI): 3.16 µM
GI50 (OVCAR-3): 10.2 µM
GI50 (OVCAR-4): 12.9 µM
GI50 (OVCAR-5): 12.9 µM
GI50 (OVCAR-8): 4.17 µM
GI50 (SK-OV-3): 10.2 µM
GI50 [11]: 25.7 µM
GI50 (ACHN): 7.08 µM
GI50 (St-4): 5.37 µM
GI50 [12]: 3.89 µM
GI50 (MKN-7): 3.02 µM
GI50 (MKN-28): 4.57 µM
GI50 (MKN-45): 5.25 µM
GI50 (MKN-74): 3.98 µM
GI50 (DU-145): 18.6 µM
GI50 (PC-3): 3.16 µM
Activity (Saccharomyces cerevisiae [13]): inactive
Activity (Saccharomyces cerevisiae [1]): inactive
IC50 (HL-60 [2]): 0.26 µM
Activity (HL-60 [14]): Active
Activity (HL-60 [15]): Active
Activity (HL-60 [16]): Active
Activity (HL-60 [17]): Dose-dependent effect
Activity (HL-60 [18]): Dose-dependent effect
Activity (HL-60 [19]): Dose-dependent effect
IC50 (HL-60 [7]): 0.18 µM
IC50 (HL-60 [8]): > 20 µM
Ratio IC50 (HL-60 [20]): >100
GI50 [21]: 2.04 µM
GI50 [22]: 11.2 µM
GI50 [23]: 5.37 µM

CC(C)=CCCC(C)[C@@]12CC[C@]3(C)O[C@@H]3[C@@H]1O2 (relative stereo)
Activity (Saccharomyces cerevisiae [24]): inactive
Activity (HL-60 [25]): inactive
